In assay [1] the test system is Mus musculus. The assay is described as follows: Anti-ulcerative colitis activity in DSS-induced C57BL/6 mouse ulcerative colitis model assessed as colon length recovery ratio at 3 mg/kg, IG via gavage measured after 7 days relative to control. It counts as functional. To be noted: time 7 day.
The target of assay [2] is T1, Dual specificity mitogen-activated protein kinase kinase 3 (Homo sapiens) (UniProt P46734).
T1 sequence (whole entry): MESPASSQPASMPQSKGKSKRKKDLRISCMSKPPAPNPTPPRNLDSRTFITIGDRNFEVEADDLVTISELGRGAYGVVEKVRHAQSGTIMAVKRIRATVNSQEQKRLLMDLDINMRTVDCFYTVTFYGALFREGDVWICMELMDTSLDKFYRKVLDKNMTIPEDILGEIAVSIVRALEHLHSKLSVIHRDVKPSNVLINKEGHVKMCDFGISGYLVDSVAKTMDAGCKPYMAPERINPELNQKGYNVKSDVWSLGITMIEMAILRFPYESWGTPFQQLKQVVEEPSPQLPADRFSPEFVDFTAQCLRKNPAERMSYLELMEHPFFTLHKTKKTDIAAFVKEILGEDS
The assay is described as follows: Binding affinity to CM5 chip immobilized human MKK3 (20 to 347 residues) expressed in Escherichia coli BL21 (DE3) assessed as association constant, Ka by surface plasmon resonance analysis. (In general: Surface plasmon resonance follows binding to a sensor surface in real time, without labels.)

Assay [3] concerns Mus musculus. The assay is described as follows: Antiinflammatory activity against IL-10-/- C57BL/6 mouse model of acute ulcerative colitis assessed as decrease in serum IL-1beta levels administered intragastrically via gavage measured after 8 weeks by ELISA. It counts as functional, organism-based. To be noted: dose 3-10 mg/kg, route ig, DDE = dose-dependent effect. For orientation: In an ELISA, binding on a coated surface is turned into a signal by an enzyme label.

Assay [4] relates to RAW264.7. Put plainly: Inhibition of MKK3-p38-elF4E signaling pathway in mouse RAW264.7 cells assessed as reduction in LPS-induced Mnk1 phosphorylation treated for 1.5 hrs followed by LPS treatment for 1 hr by Western blot analysis. The conditions noted are these: dose 3.125-12.5 µmol/L, time 2.5 hrs, DDE = dose-dependent effect. The class given is cell-based. On the technique in general: In western blotting, separated proteins are transferred to a membrane and probed.

Assay [5] relates to RAW264.7. The assay is described as follows: Inhibition of MKK3-p38-elF4E signaling pathway in mouse RAW264.7 cells assessed as inhibition of LPS-induced p38 phosphorylation treated for 1.5 hrs followed by LPS treatment for 1 hr by Western blot analysis. It counts as cell-based. The conditions noted are these: dose 3.125-12.5 µmol/L, time 2.5 hrs, DDE = dose-dependent effect.

Assay [6] relates to Mus musculus. The assay is described as follows: Antiinflammatory activity against IL-10-/- C57BL/6 mouse model of ulcerative colitis assessed as inhibition ratio of IL-23 protein expression at 3 mg/kg, IG via gavage and measured after 8 weeks by ELISA relative to control. It counts as functional. The arrangement: scale not given: the % may be the effect or the level left.
In assay [7] the test system is Mus musculus. Put plainly: Anti-ulcerative colitis activity in IL-10-/- C57BL/6 mouse model of ulcerative colitis assessed as colon length recovery ratio at 1 mg/kg, IG via gavage for 8 weeks relative to control. The class given is functional.
Assay [8] deals with Mus musculus. The assay is described as follows: Antiinflammatory activity against IL-10-/- C57BL/6 mouse model of ulcerative colitis assessed as inhibition ratio of TNF-alpha protein expression at 10 mg/kg, IG via gavage and measured after 8 weeks by ELISA relative to control. It counts as functional. Further details: scale not given: the % may be the effect or the level left.

For assay [9], the system named is Mus musculus. Put plainly: Antiinflammatory activity against IL-10-/- C57BL/6 mouse model of ulcerative colitis assessed as inhibition ratio of IL-23 protein expression at 1 mg/kg, IG via gavage and measured after 8 weeks by ELISA relative to control. The class given is functional. Further details: scale not given: the % may be the effect or the level left.

`COc1ccc([C@H]2CC(=O)c3cc(OC)cc(OC)c32)cc1`: the Activity was 51.5% with Mus musculus [1]; “Dde” in the assay on Mus musculus [3]; 58.2% in the assay with Mus musculus [6]; 17.7% in the assay with Mus musculus [7]; 61.9% with Mus musculus [8]; 39.6% in the assay on Mus musculus [9]. Moreover, the Ka in [2] was 5.08 10^4/Ms. Moreover, the inhibition entry in the assay on RAW264.7 [4] and with RAW264.7 [5] was “Dde” each time.
